Values of other authors in article PMC5641599 (Molecular Metabolism, 2017).
Like-named read-outs stand apart in the source and are kept apart here.

Test system: MC4R variants
Conditions: cited from earlier work

Substance: NDP-MSH
- Binding Bmax (% of WT) (MC4R A303P, ref Hohenadel MG, Int J Obes, 2014): 22.4 % of WT
- Binding Bmax (% of WT) (MC4R A303T, ref Tan K, Endocrinology, 2009): 86.6 % of WT
- Binding Bmax (% of WT) (MC4R C84R, HEK293 cell line, ref Huang H, Int J Biol Sci, 2014): 5.0 % of WT
- Binding Bmax (% of WT) (MC4R C84R, ref Fan ZC, J Cell Mol Med, 2009): 0.0 % of WT
- Binding Bmax (% of WT) (MC4R C271Y, HEK293 cell line, ref Huang H, Int J Biol Sci, 2014): 70.0 % of WT
- Binding Bmax (% of WT) (MC4R C271Y, ref Tao YX, Endocrinology, 2003): 0.0 % of WT
- Binding Bmax (% of WT) (MC4R C271Y, ref Xiang Z, Biochemistry, 2006): 6.7 % of WT
- Binding Bmax (% of WT) (MC4R D90N, COS-7 cell line, ref Biebermann H, Diabetes, 2003): 80.0 % of WT
- Binding Bmax (% of WT) (MC4R D90N, ref Xiang Z, Biochemistry, 2010): 108.1 % of WT
- Binding Bmax (% of WT) (MC4R E61K, ref Tan K, Endocrinology, 2009): 39.6 % of WT
- Binding Bmax (% of WT) (MC4R E61K, ref Xiang Z, Biochemistry, 2010): 2.0 % of WT
- Binding Bmax (% of WT) (MC4R E308K, ref Xiang Z, Biochemistry, 2010): 37.8 % of WT
- Binding Bmax (% of WT) (MC4R F51L, ref Tao YX, J Clin Endocrinol Metab, 2005): 108.0 % of WT
- Binding Bmax (% of WT) (MC4R F51L, ref Xiang Z, Biochemistry, 2010): 113.5 % of WT
- Binding Bmax (% of WT) (MC4R G55D, ref Tan K, Endocrinology, 2009): 68.6 % of WT
- Binding Bmax (% of WT) (MC4R G55V, ref Hohenadel MG, Int J Obes, 2014): 55.4 % of WT
- Binding Bmax (% of WT) (MC4R G55V, ref Tan K, Endocrinology, 2009): 128.5 % of WT
- Binding Bmax (% of WT) (MC4R G98R, HEK293 cell line, ref Huang H, Int J Biol Sci, 2014): 0.0 % of WT
- Binding Bmax (% of WT) (MC4R G98R, ref Xiang Z, Biochemistry, 2010): 0.541 % of WT
- Binding Bmax (% of WT) (MC4R I69R, HEK293 cell line, ref Huang H, Int J Biol Sci, 2014): 0.0 % of WT
- Binding Bmax (% of WT) (MC4R I69T, ref Tan K, Endocrinology, 2009): 24.8 % of WT
- Binding Bmax (% of WT) (MC4R I69T, ref Xiang Z, Biochemistry, 2010): 8.1 % of WT
- Binding Bmax (% of WT) (MC4R I102S, ref Roubert P, J Endocrinol, 2010): 23.5 % of WT
- Binding Bmax (% of WT) (MC4R I102S, ref Tao YX, J Clin Endocrinol Metab, 2005): 0.0 % of WT
- Binding Bmax (% of WT) (MC4R I102S, ref Xiang Z, Biochemistry, 2006): 1.6 % of WT
- Binding Bmax (% of WT) (MC4R I102T, ref Larsen LH, J Clin Endocrinol Metab, 2005): 115.0 % of WT
- Binding Bmax (% of WT) (MC4R I102T, ref Roubert P, J Endocrinol, 2010): 51.0 % of WT
- Binding Bmax (% of WT) (MC4R I102T, ref Tao YX, J Clin Endocrinol Metab, 2005): 20.0 % of WT
- Binding Bmax (% of WT) (MC4R I301T, ref Nijenhuis WA, J Biol Chem, 2003): 10.0 % of WT
- Binding Bmax (% of WT) (MC4R I301T, ref Vaisse C, J Clin Invest, 2000): 20.0 % of WT
- Binding Bmax (% of WT) (MC4R I301T, ref Xiang Z, Biochemistry, 2006): 35.6 % of WT
- Binding Bmax (% of WT) (MC4R I316S, ref Xiang Z, Biochemistry, 2006): 55.6 % of WT
- Binding Bmax (% of WT) (MC4R I316S, ref Yeo GS, Hum Mol Genet, 2003): 28.0 % of WT
- Binding Bmax (% of WT) (MC4R I317T, ref Nijenhuis WA, J Biol Chem, 2003): 42.0 % of WT
- Binding Bmax (% of WT) (MC4R I317T, ref VanLeeuwen, J Biol Chem, 2003): 66.7 % of WT
- Binding Bmax (% of WT) (MC4R I317T, ref Xiang Z, Biochemistry, 2006): 20.0 % of WT
- Binding Bmax (% of WT) (MC4R I317V, ref Fan ZC, J Cell Mol Med, 2009): 94.0 % of WT
- Binding Bmax (% of WT) (MC4R I317V, ref Xiang Z, Biochemistry, 2010): 91.9 % of WT
- Binding Bmax (% of WT) (MC4R L54P, ref Tan K, Endocrinology, 2009): 32.5 % of WT
- Binding Bmax (% of WT) (MC4R L106P, ref Xiang Z, Biochemistry, 2006): 2.2 % of WT
- Binding Bmax (% of WT) (MC4R L106P, ref Yeo GS, Hum Mol Genet, 2003): 18.7 % of WT
- Binding Bmax (% of WT) (MC4R L304F, ref van der Berg L, Obesity, 2011): 40.0 % of WT
- Binding Bmax (% of WT) (MC4R L325F, ref Fan ZC, J Cell Mol Med, 2009): 92.0 % of WT
- Binding Bmax (% of WT) (MC4R L325F, ref Larsen LH, J Clin Endocrinol Metab, 2005): 0.0 % of WT
- Binding Bmax (% of WT) (MC4R L325F, ref Xiang Z, Biochemistry, 2010): 70.3 % of WT
- Binding Bmax (% of WT) (MC4R N62S, HEK293 cell line, ref Huang H, Int J Biol Sci, 2014): 25.0 % of WT
- Binding Bmax (% of WT) (MC4R N62S, ref Tao YX, Endocrinology, 2003): 5.0 % of WT
- Binding Bmax (% of WT) (MC4R N62S, ref Xiang Z, Biochemistry, 2006): 1.4 % of WT
- Binding Bmax (% of WT) (MC4R N62S, ref Yeo GS, Hum Mol Genet, 2003): 20.0 % of WT
- Binding Bmax (% of WT) (MC4R N97D, ref Xiang Z, Biochemistry, 2006): 8.9 % of WT
